According to BindingDB's records for doi:10.1016/j.bmc.2012.08.006 (Chungnam National University, 2012):

Test: Inhibition of IL-5 in mouse Y16 cells after 48 hrs by WST1 assay

SMILES	IC50
CCCN(CCO)Cc1coc2cccc(OCC3CCCCC3)c2c1=O	15.4 µM
CCN(CCO)Cc1coc2cccc(OCC3CCCCC3)c2c1=O	19.5 µM
Cc1ccc(CN(CCO)Cc2coc3cccc(OCC4CCCCC4)c3c2=O)cc1	9.4 µM
O=c1c(CN(CCO)Cc2ccccc2)coc2cccc(OCC3CCCCC3)c12	16.1 µM
O=c1c(CN(CCO)CC2CCCCC2)coc2cccc(OCC3CCCCC3)c12	12.4 µM
O=c1c(CN(CCO)Cc2ccncc2)coc2cccc(OCC3CCCCC3)c12	14.2 µM
O=c1c(CN(CCO)Cc2ccc(Cl)cc2)coc2cccc(OCC3CCCCC3)c12	10.3 µM
CC(C)N(CCO)Cc1coc2cccc(OCC3CCCCC3)c2c1=O	10.2 µM
O=c1c(CN(CCO)c2ccccc2)coc2cccc(OCC3CCCCC3)c12	14.3 µM
CN(CCO)Cc1coc2cccc(OCC3CCCCC3)c2c1=O	30.3 µM

Further lines, results first:

IC50	SMILES
9 µM	COc1ccc(CN(CCO)Cc2coc3cccc(OCC4CCCCC4)c3c2=O)cc1
9.1 µM	O=c1c(CN(CCO)Cc2ccc(O)cc2)coc2cccc(OCC3CCCCC3)c12
9.2 µM	CCCCN(CCO)Cc1coc2cccc(OCC3CCCCC3)c2c1=O
9 µM	O=c1c(CN(CCO)C2CCCCC2)coc2cccc(OCC3CCCCC3)c12
